Measured values as given in US11725000B2, “Apoptosis inhibitors” (National Institute of Biological Sciences, Beijing, priority 2017, dated 2023).
Where a SMILES comes first, the peptide text is derived from it. The star is where a group is joined. Cbz = O=C(OCc1ccccc1)*; CH2F = FC*

What was measured:
Format in all cases: cell-based
U2OS_Bim cells [1] = experiment: Apoptosis inhibition assay (Bim-induced apoptosis, cell viability by ATP level); conditions: U2OS_Bim cells
Summary of the method: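 Apoptosis was triggered by doxycycline (0.1 μg/mL) induction of Bim, one hour after compound addition to U2OS_Bim cells. Survival was measured after 24 h from cellular ATP (CellTiter-Glo), relative to DMSO, with zVAD at 20 μM as rescue control. Data are duplicate means, some estimated from preliminary results.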

U2OS_Bim cells [2] = experiment: Irreversibility binding assay (cellular wash/no wash assay)
From the text: It has been reported that sulfone can serve as a good leaving group in SN2 substitution reactions when linked to electron withdrawing groups. Active compounds in our SAR study all contained a —CF3 substituted pyrimidine ring linked to the sulfone group. Replacement of CF3 at the R2 position with groups with less powerful electron-withdrawing properties totally abolished the apoptosis inhibition activity. […] To test the reactivity of representative TC09 compounds, we performed model reactions using different nucleophilic reagent (cysteine, lysine, and glutathione) with compounds 1, 6, and 27. […] To further explore the binding mode of the active compounds in a cellular context, we next performed a cellular wash/no wash assay for determining the reversibility of compound-target interactions. Following compound incubation, one subset of cells was washed several times to eliminate the free test compounds, and the other subset was not washed. Apoptosis was induced and the viability of cells was then measured and EC50 under wash conditions was compared with no wash conditions.[9]
U2OS_Bim cells were plated at a density of 3000 cells per well in 96-well plates. 24 hrs later, duplicate sets of cells were treated with experimental compounds for 3 hrs. One subset of these cells were treated with 0.1 μg/mL DOX to trigger apoptosis. The remaining subset of cells was washed free of the experimental compound using warmed medium, 3 times, before being treated with 0.1 μg/mL DOX. 24 hours after DOX addition, cell viability was determined by measuring the ATP levels using a CellTiter-Glo kit. Cell survival rate was calculated. zVAD (20 μM) was used as a positive control.

U2OS_Bim cells [3] = experiment: Immunostaining of cytochrome c (mitochondrial cytochrome c release); conditions: immunofluorescence after induced Bim overexpression
Experimental: U2OS_Bim cells were plated in Lab-Tek eight-chambered slides (Thermo Scientific). 24 hrs later, cells were treated with experimental compounds for one hour. Cell were washed by PBS for 10 min and fixed with 2% PFA for 30 min at room temperature. Following three additional washes in PBS, cells were incubated in PBS containing 0.1% Triton X-100 for 10 min. Cytochrome c antibody (diluted in 5% BSA in PBST) was incubated with the cells at 4° C. overnight. Cells were then washed three times with PBST and incubated with secondary antibody at room temperature for 1 h. Following three additional washes in PBS, the slides were covered and sealed and then examined with a Zeiss LSM 510 confocal microscope.

U2OS_Bim cells [4] = experiment: TMRM staining (mitochondrial membrane potential); conditions: DOX induction of Bim
Experimental: U2OS_Bim cells were plated at a density of 3000 cells per well in 96-well optical plates. 24 hrs later, cells were treated with experimental compounds for one hour. The cells were then treated with 0.1 μg/mL DOX to trigger apoptosis. 4 hrs later, 50 nM TMRM was added to each well and incubated for 30 min. Cells were washed 3 times with warmed PBS buffer and examined with a Zeiss LSM 510 confocal microscope.

U2OS_Bim cells [5] = experiment: Long-term cell survival under constant apoptotic insult (DOX)
Experimental: We therefore tested the long-term impact of TC09 compounds on cells experiencing constant apoptotic insult. […] Remarkably, in the presence of tested TC09 compounds, the cells continued to proliferate, similar to cells grown under normal conditions.
The U2OS_Bim cells were all killed when DOX was added, even in the presence of z-VAD-FMK.

[6] = estimated (*Est.) / preliminary results, numbering of Tables 4a/4b, read-out: EC50
[7] = no wash, 3 hrs compound incubation before DOX, read-out: EC50 (no wash)

Row | Structure (SMILES) | EC50 (U2OS_Bim cells [1]; [6]) [µM] | further results
1 | Cc1cc(-c2cc(F)c(=O)n(Cc3ccc4c(c3)OCO4)c2)nc(S(=O)(=O)CCC(OCC2CCCC2)c2ccccc2)n1 (centres unmarked) [Compound 412] | 0.001 to 1 | 
2 | Cc1cc(-c2cc(F)c(=O)n(Cc3ccc4c(c3)OCO4)c2)nc(S(=O)(=O)CCC(OCC2CCNC2)c2ccccc2)n1 (centres unmarked) [Compound 413] | 0.001 to 1 | 
3 | Cc1cc(-c2cc(F)c(=O)n(Cc3ccc4c(c3)OCO4)c2)nc(S(=O)(=O)CCC(OCC2CCOC2)c2ccccc2)n1 (centres unmarked) [Compound 414] | 0.001 to 1 | 
4 | Cc1cc(-c2cc(F)c(=O)n(Cc3ccc4c(c3)OCO4)c2)nc(S(=O)(=O)CCC(OCC2CCC2)c2ccccc2)n1 (centres unmarked) [Compound 415] | 0.001 to 1 | 
5 | Cc1cc(-c2cc(F)c(=O)n(Cc3ccc4c(c3)OCO4)c2)nc(S(=O)(=O)CCC(OCC2CN(C)C2)c2ccccc2)n1 (centres unmarked) [Compound 416] | 0.001 to 1 | 
6 | Cc1cc(-c2cc(F)c(=O)n(Cc3ccc4c(c3)OCO4)c2)nc(S(=O)(=O)CCC(OCC2COC2)c2ccccc2)n1 (centres unmarked) [Compound 417] | 0.001 to 1 | 
7 | Cc1cc(-c2cc(F)c(=O)n(Cc3ccc4c(c3)OCO4)c2)nc(S(=O)(=O)CCC(OCC2CC2)c2ccccc2)n1 (centres unmarked) [Compound 418] | 0.001 to 1 | 
8 | Cc1cc(-c2cc(F)c(=O)n(Cc3ccc4c(c3)OCO4)c2)nc(S(=O)(=O)CCC(OCC2CO2)c2ccccc2)n1 (centres unmarked) [Compound 419] | 0.001 to 1 | 
9 | Cc1cc(-c2cc(F)c(=O)n(Cc3ccc4c(c3)OCO4)c2)nc(S(=O)(=O)CCC(OCC2CN2C)c2ccccc2)n1 (centres unmarked) [Compound 420] | 0.001 to 1 | 
10 | Cc1cc(-c2cc(F)c(=O)n(Cc3ccc4c(c3)OCO4)c2)nc(S(=O)(=O)CCC(OCC(C)(C)C)c2ccccc2)n1 (centres unmarked) [Compound 421] | 0.001 to 1 | 
11 | Cc1ccc(O)c(NC(=O)CCCS(=O)(=O)c2nc(-c3cccs3)cc(C(F)(F)F)n2)c1 [Hit] |  | EC50 (U2OS_Bim cells [1]; DOX-induced Bim overexpression, viability 24 h after DOX, read-out: EC50): 4.01 µM; EC50 (U2OS_Bim cells [1]; means of duplicates, numbering of Tables 4a/4b, read-out: EC50): 1 to 10 µM; EC50 (U2OS_Bim cells [1]; read-out: EC50 in increasing cell survival rates following apoptosis induced by Bim overexpression): 4 µM; EC50 (U2OS_Bim cells [2]; cells washed free of compound 3 times before DOX, read-out: EC50 (wash assay)): 3.9 µM; EC50 (U2OS_Bim cells [2]; [7]): 4.01 µM; mitochondrial cytochrome c release (U2OS_Bim cells [3]): could prevent cytochrome c release
12 | COC(=O)C[C@H](NC(=O)[C@H](C)NC(=O)[C@@H](NC(=O)OCc1ccccc1)C(C)C)C(=O)CF [zVAD] (Cbz-Val-Ala-Asp(OMe)-CH2F) |  | EC50 (U2OS_Bim cells [2]; [7]): 69.2 µM; mitochondria membrane potential and TMRM enrichment after apoptosis induction (U2OS_Bim cells [4]): cannot be achieved; cell colonies after 1 week culture with DOX (crystal violet) (U2OS_Bim cells [5]; 1 week): all killed; cell survival/proliferation over days after addition of DOX (U2OS_Bim cells [5]; constant apoptotic insult, up to third day): clearly delayed death, most of the cells had died by the third day

Further lines, with some results ahead:

Row | EC50 (U2OS_Bim cells [1]; [6]) [µM] | Structure (SMILES) | further results
13 | 0.001 to 1 | Cc1cc(-c2cc(F)c(=O)n(Cc3ccc4c(c3)OCO4)c2)nc(S(=O)(=O)CCC(OCc2cncs2)c2ccccc2)n1 (centres unmarked) [Compound 406] | 
14 | 0.001 to 1 | Cc1cc(-c2cc(F)c(=O)n(Cc3ccc4c(c3)OCO4)c2)nc(S(=O)(=O)CCC(OCc2ccco2)c2ccccc2)n1 (centres unmarked) [Compound 407] | 
15 | 0.001 to 1 | Cc1cc(-c2cc(F)c(=O)n(Cc3ccc4c(c3)OCO4)c2)nc(S(=O)(=O)CCC(OCc2cnco2)c2ccccc2)n1 (centres unmarked) [Compound 408] | 
16 | 0.001 to 1 | Cc1cc(-c2cc(F)c(=O)n(Cc3ccc4c(c3)OCO4)c2)nc(S(=O)(=O)CCC(OCC2CCCCC2)c2ccccc2)n1 (centres unmarked) [Compound 409] | 
17 | 0.001 to 1 | Cc1cc(-c2cc(F)c(=O)n(Cc3ccc4c(c3)OCO4)c2)nc(S(=O)(=O)CCC(OCC2CCOCC2)c2ccccc2)n1 (centres unmarked) [Compound 410] | 
18 | 0.001 to 1 | Cc1cc(-c2cc(F)c(=O)n(Cc3ccc4c(c3)OCO4)c2)nc(S(=O)(=O)CCC(OCC2CCN(C)CC2)c2ccccc2)n1 (centres unmarked) [Compound 411] | 
